According to patent publication US9150585B2, “Analogs of camptothecin” (FL Therapeutics, LLC, priority 2012, dated 2015):
Blank lines part the entries; values can stand above or below the compound they belong to.

What was measured:
[1] = target: Human serum albumin (HSA) (Homo sapiens, UniProt P02768); test: HSA-binding assay (equilibrium dialysis); settings: isolated protein
Protocol: Equilibrium dialysis was performed in a 24-well BD Gentest Serum Binding System (BD Biosciences, Woburn, Mass.). Human serum albumin (HSA) at 0.6 mM was prepared by dissolving in phosphate buffered saline (PBS: 4.01 mL 1 M K2HPO4+0.99 mL 1 M KH2PO4+1.37 mL 5 M NaCl+43.63 mL water). After washing and soaking the 24-well BD Gentest Serum Binding System with water, 30% ethanol, and PBS, 750 μL of HSA and 250 μL of PBS were dispensed into each donor and receiver well, respectively. 3.75 μL of 1 mM test compound or wafarin (as control) was spiked into HSA in each donor well. The duplicate incubations were performed at 37° C. for 20 hrs.
After incubation, HSA and buffer samples collected from donor and receiver wells, together with calibration standard samples, were prepared in 96-well plates as shown in Table 5.
The plates were then capped, vortexed, and centrifuged at 3500 rpm for 10 minutes. The supernatant was injected into LC-MS/MS. Sample analysis was performed on an LC/MS/MS system composed of Shimadzu Prominence pumps, SIL-20ACHT autosampler, and Applied Biosystems/MDS Sciex API 3200.

[2] = in presence of HSA; cited from earlier work
[3] = cited from earlier work
[4] = Persistence in plasma (incubation with human plasma, LC-MS/MS); assay type: in vitro ADME; settings: for Peak Area Ratio (Analyte/IS) Human Plasma 0 min Replicate 1 / Peak Area Ratio (Analyte/IS) Human Plasma 0 min Replicate 2 / Peak Area Ratio (Analyte/IS) Human Plasma 60 min Replicate 1 / Peak Area Ratio (Analyte/IS) Human Plasma 60 min Replicate 2 / % Remaining after 1-hr Incubation at 37° C. in Human Plasma, Average / % Remaining after 1-hr Incubation at 37° C. in Human Plasma, Replicate 1 / % Remaining after 1-hr Incubation at 37° C. in Human Plasma, Replicate 2: 10 μM
Protocol: Test compounds and control (procaine) were incubated at a concentration of 10 μM with human plasma. The duplicate incubations, conducted in 96-well plates in a shaking water bath maintained at 37° C., were performed for 0 and 60 minutes and quenched by addition of acetonitrile.
After quenching by acetonitrile, the plates were capped, vortexed, and centrifuged at 3000 rpm for 10 minutes. The supernatant was injected into LC-MS/MS.
[formula] […] FL-001 and FL-003 are stable in human plasma, with a percent remaining of 127 and 89, respectively. Using the same protocol, the percent remaining of Camptothecin after 1-hr incubation in human plasma is 11%.

[5] = human plasma, 37° C., replicate 1
[6] = human plasma, 37° C., replicate 2

Chain of Human serum albumin (HSA) (P02768 25-609): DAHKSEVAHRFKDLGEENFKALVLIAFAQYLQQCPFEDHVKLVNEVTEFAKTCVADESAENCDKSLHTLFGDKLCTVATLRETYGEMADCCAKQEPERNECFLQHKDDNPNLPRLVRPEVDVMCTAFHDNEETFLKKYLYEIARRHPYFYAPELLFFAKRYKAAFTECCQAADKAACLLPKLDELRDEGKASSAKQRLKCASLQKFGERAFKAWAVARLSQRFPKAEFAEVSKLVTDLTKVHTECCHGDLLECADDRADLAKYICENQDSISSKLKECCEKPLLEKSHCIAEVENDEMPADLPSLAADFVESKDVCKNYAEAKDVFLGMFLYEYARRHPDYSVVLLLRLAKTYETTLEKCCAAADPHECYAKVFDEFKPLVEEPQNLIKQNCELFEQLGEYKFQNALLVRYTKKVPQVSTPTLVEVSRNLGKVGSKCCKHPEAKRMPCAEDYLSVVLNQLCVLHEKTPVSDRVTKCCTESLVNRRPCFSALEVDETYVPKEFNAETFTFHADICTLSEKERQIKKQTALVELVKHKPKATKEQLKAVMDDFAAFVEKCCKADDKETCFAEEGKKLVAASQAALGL

SMILES: CCCCCCCCCCCCCCCC(=O)N(CCC(=O)O[C@]1(CC)C(=O)OCc2c1cc1n(c2=O)Cc2cc3ccccc3nc2-1)CC(=O)O [FL-015]
fraction unbound at 20 h, 5 μM [1]: < 0.001

fraction unbound at 20 h, 5 μM [1]: 0.015
SMILES: CCCCCCCCC(NC(=O)CCC(=O)O[C@]1(CC)C(=O)OCc2c1cc1n(c2=O)Cc2cc3c(CN(C)C)c(O)ccc3nc2-1)C(=O)O (stereo partly drawn) [FL-006]

SMILES: CC[C@@]1(O)C(=O)OCc2c1cc1n(c2=O)Cc2cc3c(N)cccc3nc2-1 [9-Aminocamptothecin]
equilibrium concentration of active (lactone) form in blood [2]: less than 0.5%

SMILES: CCCCCCCCCCCCCCCCC(NC(=O)C(CCCCN)NC(=O)CCC(=O)O[C@]1(CC)C(=O)OCc2c1cc1n(c2=O)Cc2cc3ccccc3nc2-1)C(=O)O (stereo partly drawn) [FL-013]
fraction unbound at 20 h, 5 μM [1]: < 0.001

SMILES: CCCCCCCCCCCCC(NC(=O)CCC(=O)O[C@]1(CC)C(=O)OCc2c1cc1n(c2=O)Cc2cc3c(CN(C)C)c(O)ccc3nc2-1)C(=O)O (stereo partly drawn) [FL-008]
fraction unbound at 20 h, 5 μM [1]: < 0.002

SMILES: CCCCCCCCCCCCCCCCC(NC(=O)CCCC(=O)O[C@]1(CC)C(=O)OCc2c1cc1n(c2=O)Cc2cc3c(CN(C)C)c(O)ccc3nc2-1)C(=O)O (stereo partly drawn) [FL-010]
fraction unbound at 20 h, 5 μM [1]: < 0.002

fraction unbound at 20 h, 5 μM [1]: < 0.002
SMILES: CCCCCCCCCCCCCCCCC(NC(=O)CCC(=O)O[C@]1(CC)C(=O)OCc2c1cc1n(c2=O)Cc2cc3c(CN(C)C)c(O)ccc3nc2-1)C(=O)O (stereo partly drawn) [FL-004]

SMILES: CC(=O)CC(c1ccccc1)c1c(O)c2ccccc2oc1=O (stereo not drawn) [Warfarin]
protein binding in human plasma (literature values) [3]: 98-100%

SMILES: CC[C@@]1(O)C(=O)OCc2c1cc1n(c2=O)Cc2cc3ccccc3nc2-1 [Camptothecin]
percent remaining after 1-hr incubation in human plasma ([4]; same protocol, human plasma, 1 hr): 11%

SMILES: CCN(CC)CCOC(=O)c1ccc(N)cc1 [Procaine, reference compound]
Peak Area Ratio (Analyte/IS) Human Plasma 0 min Replicate 1 [4, 5]: 0.60
Peak Area Ratio (Analyte/IS) Human Plasma 0 min Replicate 2 [4, 6]: 1.21
Peak Area Ratio (Analyte/IS) Human Plasma 60 min Replicate 1 [4, 5]: 0.00
Peak Area Ratio (Analyte/IS) Human Plasma 60 min Replicate 2 [4, 6]: 0.11
% Remaining after 1-hr Incubation at 37° C. in Human Plasma, Average ([4]; human, plasma, 1 h): 6%
% Remaining after 1-hr Incubation at 37° C. in Human Plasma, Replicate 1 ([4]; human, plasma, 1 h): 0%
% Remaining after 1-hr Incubation at 37° C. in Human Plasma, Replicate 2 ([4]; human, plasma, 1 h): 12%

SMILES: CCCCCCCCCCCCCCCC(=O)N[C@@H](CCC(=O)NCC(=O)O[C@]1(CC)C(=O)OCc2c1cc1n(c2=O)Cc2c-1nc1ccc(O)cc1c2CC)C(=O)O [FL-033]
fraction unbound at 20 h, 5 μM [1]: < 0.001

SMILES: CCCCCCCCCCCCCCCCC(NC(=O)CCC(=O)O[C@]1(CC)C(=O)OCc2c1cc1n(c2=O)Cc2c-1nc1ccc(O)cc1c2CC)C(=O)O (stereo partly drawn) [FL-003]
Peak Area Ratio (Analyte/IS) Human Plasma 0 min Replicate 1 [4, 5]: 3.91
Peak Area Ratio (Analyte/IS) Human Plasma 0 min Replicate 2 [4, 6]: 4.03
Peak Area Ratio (Analyte/IS) Human Plasma 60 min Replicate 1 [4, 5]: 3.37
Peak Area Ratio (Analyte/IS) Human Plasma 60 min Replicate 2 [4, 6]: 3.73
% Remaining after 1-hr Incubation at 37° C. in Human Plasma, Average ([4]; human plasma, 37° C., 1 hr, average of duplicates): 89%
% Remaining after 1-hr Incubation at 37° C. in Human Plasma, Replicate 1 ([4]; human plasma, 37° C., 1 hr, replicate 1): 85%
% Remaining after 1-hr Incubation at 37° C. in Human Plasma, Replicate 2 ([4]; human plasma, 37° C., 1 hr, replicate 2): 94%
fraction unbound at 20 h, 5 μM [1]: < 0.001

Peak Area Ratio (Analyte/IS) Human Plasma 0 min Replicate 1 [4, 5]: 1.47
Peak Area Ratio (Analyte/IS) Human Plasma 0 min Replicate 2 [4, 6]: 1.75
Peak Area Ratio (Analyte/IS) Human Plasma 60 min Replicate 1 [4, 5]: 1.96
Peak Area Ratio (Analyte/IS) Human Plasma 60 min Replicate 2 [4, 6]: 2.13
% Remaining after 1-hr Incubation at 37° C. in Human Plasma, Average ([4]; human, plasma, 1 h): 127%
% Remaining after 1-hr Incubation at 37° C. in Human Plasma, Replicate 1 ([4]; human, plasma, 1 h): 122%
% Remaining after 1-hr Incubation at 37° C. in Human Plasma, Replicate 2 ([4]; human, plasma, 1 h): 132%
fraction unbound at 20 h, 5 μM [1]: < 0.001
SMILES: CCCCCCCCCCCCCCCCC(NC(=O)CCC(=O)O[C@]1(CC)C(=O)OCc2c1cc1n(c2=O)Cc2cc3ccccc3nc2-1)C(=O)O (stereo partly drawn) [FL-001]
